Where two headings read alike, the source gives them in different places.
What was measured:
U87MG = test: In vitro anti-tumor activity evaluation test (CCK-8), U87MG; assay type: cell-based, human; conditions: 72 h; for IC50: read-out: IC50 against different tumor cell lines; for inhibition at 1 µM: read-out: Inhibitory rates against tumor cell lines
Description: (§1) • (1) Cells were digested and counted. Cell suspensions (H520, SW620 5.0×10^4 cells/mL, and U87MG 3.5×10^4 cells/mL) were prepared. 100 μL of cell suspension was added to each well of a 96-well cell culture plate. • (2) The 96-well cell culture plate was incubated in a 37° C., 5%, CO2 incubator for 24 h. • (3) A drug was diluted with a culture medium to a desired working solution concentration. 100 μL of the corresponding drug-containing culture medium was added to each well. At the same time, a negative control group and a positive control group were set up. • (4) The 96-well cell culture plate was incubated in a 37° C., 5%, CO2 incubator for 72 h. • (5) The 96-well plate was stained with CCK-8, and at λ=450 nm, the OD value was determined. • 1) 10 μL of CCK-8 was added to each well. The culture plate continued to be incubated in the incubator for 2-3 h. • 2) The culture plate was rocked for 10 min to gently mix and remove air bubbles from the 96-well plate. • 3) At λ=450 nm, the OD value of each well was read by the enzyme marker, and the inhibitory rates were calculated. • (6) According to the following equation (1), the growth inhibitory rate of the tumor cells was obtained. The obtained results were substituted into an IC 50 calculation software SPSS17.0 to find out the IC50 value.

SW620 = test: In vitro anti-tumor activity evaluation test (CCK-8), SW620; assay type: cell-based, human; conditions: for IC50: read-out: IC50 against different tumor cell lines; for inhibition at 1 µM: read-out: Inhibitory rates against tumor cell lines
Description: as §1

NCI-H520 = test: In vitro anti-tumor activity evaluation test (CCK-8), NCI-H520; assay type: cell-based, human; conditions: for inhibition at 1 µM: read-out: Inhibitory rates against tumor cell lines; for IC50: read-out: IC50 against different tumor cell lines
Description: as §1

[1] = In vitro NO release test (incubation with L-cysteine, OD at 550 nm); conditions: 100 μM solution with cysteine solution, 37° C.
Description: • (1) Sodium nitrite solutions with different concentrations were prepared. A calibration curve was drawn. • (2) The sample was treated. A 100 μM solution was prepared. 2.5 mL of the prepared compound solution and 2.5 mL of the cysteine solution were taken and incubated at 37° C. for 120 min, and the resulting mixture was sampled at different time points. • (3) A blank hole and a standard hole were set. 160 μL of the sample was collected and mixed evenly with 0.08 mL of a developer and stood at 37° C. for 15 min. At λ=550 nm, the OD value of absorbance was measured by the enzyme marker. The NO release levels were obtained by substituting the value into the standard curve.

[2] = Homo sapiens, U-87 MG, U87MG, 1 μM
[3] = Homo sapiens, SW-620, SW620, 1 μM, 72 h
[4] = Homo sapiens, NCI-H520, 1 μM, 72 h

Compound	IC50 (NCI-H520; Homo sapiens, NCI-H520, 72 h) [nM]	IC50 (U87MG; Homo sapiens, U-87 MG, U87MG) [nM]	inhibition at 1 µM (U87MG; [2]) [%]	inhibition at 1 µM (SW620; [3]) [%]	NO-release concentrations ([1]; 5 min) [µM]	NO-release concentrations ([1]; 10 min) [µM]	NO-release concentrations ([1]; 20 min) [µM]	NO-release concentrations ([1]; 30 min) [µM]	NO-release concentrations ([1]; 60 min) [µM]	NO-release concentrations ([1]; 90 min) [µM]	NO-release concentrations ([1]; 120 min) [µM]	inhibition at 1 µM (NCI-H520; [4]) [%]	also measured
C=C[C@]1(C)CC[C@@H](C(=C)CN(CCOC(=O)CCC(=O)OCC#CCOc2no[n+]([O-])c2S(=O)(=O)c2ccccc2)C(C)C)C[C@H]1C(=C)CCl [Example 7, 4-((4-((4-(2-((2-((1R,3R,4S)-3-(3-chloroprop-1-en-2-yl)-4-methyl-4-vinylcyclohexyl)allyl)(isopropyl)amino)ethyoxyl)-4-oxobutanoyl)oxy)but-2-yn-1-yl)oxy)-3-(phenylsulfonyl)-1,2,5-oxadiazole 2-oxide]													IC50 (U87MG; Homo sapiens, U-87 MG): 882 ± 34 nM; inhibition at 1 µM (U87MG; Homo sapiens, U-87 MG): 56.7 ± 0.9%; IC50 (SW620; Homo sapiens, SW-620, 72 h): 1110 ± 115 nM; inhibition at 1 µM (SW620; Homo sapiens, SW-620, 72 h): 46.6 ± 1.2%; inhibition at 1 µM (NCI-H520; Homo sapiens, NCI-H520, 72 h): 44.5 ± 2.2%
C=C[C@]1(C)CC[C@@H](C(=C)CN2CCN(CCOC(=O)CCCC(=O)OCCOc3no[n+]([O-])c3S(=O)(=O)c3ccccc3)CC2)C[C@H]1C(=C)CCl [Example 22]	962 ± 54	372 ± 6	52.4 ± 2	42.8 ± 0.5	0.33	0.90	1.35	1.91	4.05	7.20	10.51	44.1 ± 2.4	
C=C[C@]1(C)CC[C@@H](C(=C)CN(CCOC(=O)CCC(=O)OCCOc2no[n+]([O-])c2S(=O)(=O)c2ccccc2)C(C)C)C[C@H]1C(=C)CCl [Example 5, 4-(2-((4-(2-((2-((1R,3R,4S)-3-(3-chloroprop-1-en-2-yl)-4-methyl-4-vinylcyclohexyl)allyl)(isopropyl)amino)ethyoxyl)-4-oxobutanoyl)oxy)ethyoxyl)-3-(phenylsulfonyl)-1,2,5-oxadiazole 2-oxide]		369 ± 25	47.1 ± 0.9	33 ± 2.5	0.59	41.61	48.58	2.57	5.58	9.22	13.64	44.2 ± 1.3	
C=C[C@]1(C)CC[C@@H](C(=C)CN(C)CCOC(=O)CCCC(=O)OCCOc2no[n+]([O-])c2S(=O)(=O)c2ccccc2)C[C@H]1C(=C)CCl [Example 2, 4-(2-((5-(2-((2-((1R,3R,4S)-3-(3-chloroprop-1-en-2-yl)-4-methyl-4-vinylcyclohexyl)allyl)(methyl)amino)ethyoxyl)-5-oxopentanoyl)oxy)ethyoxyl)-3-(phenylsulfonyl)-1,2,5-oxadiazole 2-oxide]	777 ± 24	358 ± 23	56 ± 2.1	42.3 ± 3.7	2.10	2.40	2.84	3.79	6.74	10.72	14.97	48.5 ± 3	
C=CC1(C)CCC(C(=C)CCl)CC1C(=C)CCl (stereo not drawn) [13,14-dichloro-β-elemene, reference compound]													Inhibitory rates against tumor cell lines (U87MG; U87MG, 1 μM): 3.5 ± 1.0%; IC50 (U87MG; U87MG): > 100000 nM; Inhibitory rates against tumor cell lines (SW620; SW620, 1 μM, 72 h): 3.3 ± 1.0%; IC50 (SW620; SW620, 72 h): > 100000 nM; Inhibitory rates against tumor cell lines (NCI-H520; NCI-H520, 1 μM, 72 h): 0.9 ± 3.0%; IC50 (NCI-H520; NCI-H520, 72 h): > 100000 nM

Second part, led by results:

IC50 (NCI-H520; Homo sapiens, NCI-H520, 72 h) [nM]	IC50 (U87MG; Homo sapiens, U-87 MG, U87MG) [nM]	Compound	inhibition at 1 µM (U87MG; [2]) [%]	inhibition at 1 µM (SW620; [3]) [%]	NO-release concentrations ([1]; 5 min) [µM]	NO-release concentrations ([1]; 10 min) [µM]	NO-release concentrations ([1]; 20 min) [µM]	NO-release concentrations ([1]; 30 min) [µM]	NO-release concentrations ([1]; 60 min) [µM]	NO-release concentrations ([1]; 90 min) [µM]	NO-release concentrations ([1]; 120 min) [µM]	inhibition at 1 µM (NCI-H520; [4]) [%]	also measured
1210 ± 152		C=C[C@]1(C)CC[C@@H](C(=C)CN2CCCC(COC(=O)CCCC(=O)OCCOc3no[n+]([O-])c3S(=O)(=O)c3ccccc3)C2)C[C@H]1C(=C)CCl (stereo partly drawn) [Example 18, 4-(2-((5-((1-(2-((1R,3R,4S)-3-(3-chloroprop-1-en-2-yl)-4-methyl-4-vinylcyclohexyl)allyl)piperidin-3-yl)methoxyl)-5-oxopentanoyl)oxy)ethyoxyl)-3-(phenylsulfonyl)-1,2,5-oxadiazole 2-oxide]	48.3 ± 1.5	46.1 ± 0.9	8.89	10.18	12.42	14.32	21.50	32.40	42.83	43.9 ± 1	
	323 ± 13	C=C[C@]1(C)CC[C@@H](C(=C)CN2CC[C@H](OC(=O)CCC(=O)OCCOc3no[n+]([O-])c3S(=O)(=O)c3ccccc3)C2)C[C@H]1C(=C)CCl [Example 9, 4-(2-((4-(((S)-1-(2-((1R,3R,4S)-3-(3-chloroprop-1-en-2-yl)-4-methyl-4-vinylcyclohexyl)allyl)pyrrolidine-3-ly)oxy)-4-oxobutanoyl)oxy)ethyoxyl)-3-(phenylsulfonyl)-1,2,5-oxadiazole 2-oxide]	51.3 ± 1.3	39.3 ± 4.2	3.25	3.90	5.98	7.59	11.11	17.29	23.48	44.5 ± 2.8	
	898 ± 54	C=C[C@]1(C)CC[C@@H](C(=C)CN2CCC(OC(=O)CCCC(=O)OCC#CCOc3no[n+]([O-])c3S(=O)(=O)c3ccccc3)C2)C[C@H]1C(=C)CCl (stereo partly drawn) [Example 12, 4-((4-((5-(((S)-1-(2-((1R,3R,4S)-3-(3-chloroprop-1-en-2-yl)-4-methyl-4-vinylcyclohexyl)allyl)pyrrolidine-3-ly)oxy)-5-oxopentanoyl)oxy)but-2-yn-1-yl)oxy)-3-(phenylsulfonyl)-1,2,5-oxadiazole 2-oxide]	47.8 ± 1.1	31.7 ± 1.4	13.20	16.04	21.29	26.90	46.58	74.45	103.92	39.1 ± 0.7	
1050 ± 13	2160 ± 548	C=C[C@]1(C)CC[C@@H](C(=C)CN2CCC(COC(=O)CCCC(=O)OCC#CCOc3no[n+]([O-])c3S(=O)(=O)c3ccccc3)CC2)C[C@H]1C(=C)CCl [Example 16, 4-((4-((5-((1-(2-((1R,3R,4S)-3-(3-chloroprop-1-en-2-yl)-4-methyl-4-vinylcyclohexyl)allyl)piperidin-4-yl)methoxyl)-5-oxopentanoyl)oxy)but-2-yn-1-yl)oxy)-3-(phenylsulfonyl)-1,2,5-oxadiazole 2-oxide]	52.2 ± 3.4	39.8 ± 1.9	16.99	18.93	22.62	27.04	42.47	64.24	86.29	52.3 ± 1.1	
	811 ± 16	C=C[C@]1(C)CC[C@@H](C(=C)CN2CCCC(COC(=O)CCC(=O)OCCOc3no[n+]([O-])c3S(=O)(=O)c3ccccc3)C2)C[C@H]1C(=C)CCl (stereo partly drawn) [Example 17, 4-(2-((4-((1-(2-((1R,3R,4S)-3-(3-chloroprop-1-en-2-yl)-4-methyl-4-vinylcyclohexyl)allyl)piperidin-3-yl)methoxyl)-4-oxobutanoyl)oxy)ethyoxyl)-3-(phenylsulfonyl)-1,2,5-oxadiazole 2-oxide]	51 ± 2.2	38.3 ± 3	4.84	5.66	6.95	8.44	12.43	17.81	22.91	45.4 ± 1.9	IC50 (SW620; Homo sapiens, SW-620, SW620, 72 h): 1090 ± 40 nM

— US12624012B2, “14-chloro-β-elemene nitric oxide donor derivative and preparation method and use thereof” (HANGZHOU NORMAL UNIVERSITY, priority 2021, dated 2026)
